Tests used:
MAGL [1] = target: T1, MAGL (Rattus norvegicus, UniProt Q8R431); assay: MAGL IC50 values marked (rat) in Table 1; format: biochemical; conditions: cell marked (rat) in the human PC3 column
T1 sequence (Q8R431 1-303): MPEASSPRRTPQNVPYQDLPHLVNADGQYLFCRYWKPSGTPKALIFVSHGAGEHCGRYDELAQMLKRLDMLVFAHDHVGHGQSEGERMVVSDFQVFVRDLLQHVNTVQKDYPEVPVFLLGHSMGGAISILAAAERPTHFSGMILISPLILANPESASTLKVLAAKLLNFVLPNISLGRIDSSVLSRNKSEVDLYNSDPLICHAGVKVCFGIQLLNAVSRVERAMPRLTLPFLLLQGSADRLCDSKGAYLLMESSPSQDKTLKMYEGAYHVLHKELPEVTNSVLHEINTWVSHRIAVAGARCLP

[2] = system: cryopreserved human hepatocytes; assay: In vitro human hepatocyte stability; format: in vitro ADME; conditions: human hepatocytes 0.5×10^6 cells/mL, 1 μM
Experimental: The metabolic stability of test articles (1 μM) in commercially sourced, pooled donor, cryopreserved human hepatocytes (0.5×10^6 cells/mL) was determined in duplicate. The CLint reactions (250 μL) were initiated by addition of test compound. Aliquots (25 μL) were taken at 0, 15, 30, 45, 60, 90, 120 and 240 minutes and then protein crashed with ice-cold acetonitrile containing internal standard then centrifuged (3220 g for 25 minutes). Supernatant was used for LC-MS/MS analysis. The in vitro half-life (in vitro t½) was determined from the slope value: in vitro t1/2=−0.693/k. Conversion of the in vitro t1/2 (in min) into the scale-up unbound intrinsic clearance (Scaled-up unbound CLint, in mL/min/kg) was done using the following equation (mean of duplicate determinations), with data shown in Table 5: Scaled-up unbound CLint=kV/N×scaling factor. V=incubation volume (0.25 mL); N=number of hepatocytes per well ([…]). Scaling factors for in vivo intrinsic clearance prediction are listed below: […]

MAGL [3] = target: T2, MAGL (Homo sapiens, UniProt Q99685); assay: In vitro competitive activity-based protein profiling, PC3 human cell membrane proteomes; format: biochemical; set-up: endogenous in cells; host or cells: PC3 human cells (membrane proteome); conditions: human PC3 membrane proteome
T2 sequence (Q99685 1-303): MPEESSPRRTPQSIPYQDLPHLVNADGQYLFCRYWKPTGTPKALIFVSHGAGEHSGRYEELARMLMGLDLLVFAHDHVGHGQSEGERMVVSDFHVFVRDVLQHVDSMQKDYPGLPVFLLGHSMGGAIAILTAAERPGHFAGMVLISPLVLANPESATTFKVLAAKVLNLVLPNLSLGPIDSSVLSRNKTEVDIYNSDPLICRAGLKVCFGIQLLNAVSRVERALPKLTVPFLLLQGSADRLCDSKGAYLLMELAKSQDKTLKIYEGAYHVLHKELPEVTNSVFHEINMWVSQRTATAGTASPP
Summary of the method: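 Competitive ABPP in PC3 membrane proteome (2.0 mg/mL protein): inhibitors preincubated 30 min at 37° C, then JW912-Bodipy probe added for 30 min at room temperature. MAGL band fluorescence after SDS-PAGE normalised to DMSO; IC50 from 4-parameter sigmoidal fit.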

[4] = system: kainic acid seizure model; assay: Kainic acid seizure model in the rat; format: in vivo
Experimental: Kainic acid is an analog of the excitatory neurotransmitter, glutamate and acts as an agonist of kainic acid receptors. After systemic injection, kainic acid induces prolonged excitatory responses with many of the features of human temporal lobe epilepsy.
Rats, placed in individual Plexiglas cages (33×21×18 cm), are injected with kainic acid (20 mg/kg i.p.). The occurrences of the following symptoms are noted over a 120-minute period 30 minutes after kainic acid injection: forelimb clonus, rearings and rearings with falling, clonic convulsions, tonic convulsions and death. The presence of each symptom and the latencies to the first appearance of the symptoms are measured. The number of forelimb clonus is counted.
12 rats are studied per group. The test is performed partially blind.
The test substances will be evaluated at multiple doses, administered p.o. 240 minutes before the test, and compared with the corresponding vehicle control group (Group 2, administered with 10% HP-b-CD in distilled water, p.o. 240 minutes before the test).
Example 6 was evaluated at 0.3, 1, 3 and 10 mg/kg, and Example 8 was evaluated at 1, 3 and 10 mg/kg, administered p.o. 4 hours before the test, and compared with a vehicle control group (administered with 10% HP-b-CD, p.o. 4 hours before the test).
Diazepam (16 mg/kg) used as reference substance, was administered p.o. 60 minutes before the test (0.5% HP-b-CD) and was compared with vehicle controls.
Quantitative data (latencies) with the test substance was analyzed by comparing treated groups with vehicle control using Kruskal-Wallis test followed by Mann-Whitney U test. Quantitative data with the reference substance will be analysed using Mann-Whitney U test.
Quantal data (frequencies) were analyzed by comparing treated groups with vehicle control using Fisher's Exact Probability tests.

[5] = system: rat formalin paw model of inflammatory pain; assay: Rat formalin paw model of inflammatory pain; format: in vivo; conditions: 4 h pre-test, vs vehicle
Experimental: In the rat formalin paw model formalin is administered into the right […] of a rat in order to induce pain (observed by hind limb licking duration and frequency).
Male Sprague Dawley rats were divided into three cohorts to enable testing in the Laboras™ equipment to be carried out over three days in a balanced design to give treatment groups of 10. On the day of the study, male Sprague Dawley rats were weighed, tail marked and dosed orally with vehicle, test compound (0.1, 0.3, 0.6, 1, 3 or 10 mg/kg) or pregabalin (30 mg/kg) 4 h pre-test using a 5 mL/kg dosing volume. For Example 6 the vehicle used was 0.5% methylcellulose in water and for Example 8 the vehicle used was 20% HP-b-CD. Up to six animals were dosed at a time. After 4 h, rats received an intraplantar injection of 50 μL of a 2.5% v/v formalin solution into the right hind paw. Rats were immediately placed into the Laboras™ cages and data acquisition started. The primary measures recorded by Laboras™ for the formalin paw model are hind limb licking duration and frequency. Locomotion is also reported as maximum speed, average speed when moving or over the whole-time bin and distance travelled. After 40 min, when data acquisition was complete, rats were removed from the cages.
On removal from the test cages, rats were anaesthetised with the gaseous anaesthetic isoflurane (5% v/v isoflurane in oxygen) and blood samples were collected by cardiac puncture. Brains were then removed, rinsed in phosphate buffered saline (PBS), hemi-sected and frozen separately in liquid nitrogen.
Data were analysed with Statistica software (TIBCO, USA version 11.1). All data are expressed as means±standard error of the mean (sem) to one decimal place. […] Time course data were analysed by repeated measures analysis of variance (ANOVA) followed by one-way ANOVAs at each time point and subsequent Dunnett's post hoc tests. […]

[6] = system: maximal electroshock seizure threshold (MEST) model; assay: Maximal electroshock seizure threshold (MEST) model in the rat; format: in vivo; conditions: 10 mg/kg p.o., 240 min pre-treatment
Experimental: In the MEST model, a low-intensity electrical current of high frequency and short duration is applied to induce tonic convulsions.
Animals were randomly assigned to vehicle, compound treatment or Lamotrigine dose groups. Animals were dosed at 5 mL/kg according to treatment groups (n=12 or 16/group), with either vehicle (0.5% MC) p.o. for Example 6, vehicle (10% HP-b-CD) for Example 8, test compound at 10 mg/kg p.o. 240 min pre-treatment time, or Lamotrigine p.o. 360 min pre-treatment time. Rats were individually assessed for production of a tonic hind limb extensor seizure following a single corneally delivered electroshock of 0.3 second duration, using an ‘up and down method’ of shock titration (Kimball A W et al., 1957). Thus, the first rat within a treatment group was given a shock at the expected or estimated CC50 current (current producing tonic hind limb extensor seizures in 50% of animals). […] This procedure was continued for all rats within a treatment group. Induction of seizure was measured as an all-or-nothing effect scored as either present (+) or absent (0) for each animal. […]
Significant differences between drug-treated animals and controls were assessed according to Litchfield and Wilcoxon (1949) or One-Way ANOVA followed by Dunnett's multiple comparisons test.

SMILES | IC50 (MAGL [1]) [µM] | Scaled-up unbound CLint [2] [mL/min/kg] | IC50 (MAGL [3]) [µM] | anticonvulsant effects in the kainic acid seizure test ([4]; dose-range 1-10 mg/kg p.o., 4 hours before the test, rat) | magnitude of the effects in the kainic acid seizure test compared with reference ([4]; middle-high doses, reference Diazepam 16 mg/kg p.o.) | measure of spontaneous pain (hind limb licking frequency) ([5]; 0.3 mg/kg and 0.6 mg/kg oral, late phase) | measure of spontaneous pain (hind limb licking frequency) ([5]; 1 mg/kg, 3 mg/kg and 10 mg/kg oral, both early and late phases) | anticonvulsant activity in the MEST (seizure threshold CC50) [6]
N#Cc1ccc(NC(=O)C2CC23CCN(C(=O)OC(C(F)(F)F)C(F)(F)F)CC3)cn1 (racemic) [Example 189, 1,1,1,3,3,3-hexafluoropropan-2-yl (+)1-((6-cyanopyridin-3-yl)carbamoyl)-6-azaspiro[2.5]octane-6-carboxylate] | 0.0033 | – | – | – | – | – | – | –
O=C(O)COc1ccc(NC(=O)C2CC23CCN(C(=O)OC(C(F)(F)F)C(F)(F)F)CC3)cn1 (single isomer, unassigned) [Example 183, (R or S)-2-((5-(6-(((1,1,1,3,3,3-hexafluoropropan-2-yl)oxy)carbonyl)-6-azaspiro[2.5]octane-1-carboxamido)pyridin-2-yl)oxy)acetic acid] | 0.39 | – | – | – | – | – | – | –
O=C(NC1CCOCC1)[C@H]1CC12CCN(C(=O)OC(C(F)(F)F)C(F)(F)F)CC2 [Example 8, 1,1,1,3,3,3-Hexafluoropropan-2-yl (S)-1-((tetrahydro-2H-pyran-4-yl)carbamoyl)-6-azaspiro[2.5]octane-6-carboxylate] | – | 7.75 | 0.0657 | clear anticonvulsant effects | close to those observed with the reference substance, Diazepam | statistically significant reduction | statistically significant reduction | anticonvulsant activity

Reference: patent publication US20240018120A1, “MAGL INHIBITORS” (H. LUNDBECK A/S, priority 2020, published 2024)
